Laboratory results reported in publication PMC6278467, “Isolation and Identification of Potent Antidiabetic Compounds from Antrodia cinnamomea—An Edible Taiwanese Mushroom” (Molecules, 2018).
Values after ≈ are worked out from the molar mass of the structure shown.

Target: T1, Saccharomyces cerevisiae α-glucosidase
T1 construct: gene MAL12; commercial enzyme from Sigma Chemical Co
Test: pNPG hydrolysis, absorbance at […] nm
Type: biochemical
Conditions: p-NPG (10 mmol/L stock, 50 μL), 0.1 mol/L potassium phosphate pH 7, 37 °C, 20 min preincubation

[1] = value lies below the stated tested range (0.02-0.25, unit printed as μg/mL in footnote)

| Compound | EC50 [1] [µg/mL] | EC50 [µg/mL] |
| --- | --- | --- |
| C=C(CC[C@@H](C(=O)O)[C@H]1CC[C@@]2(C)C3=C(CC[C@]12C)[C@@]1(C)CC[C@H](O)C(C)(C)[C@@H]1CC3)C(C)C [compound 8, eburicoic acid] | 12 ± 0.4 (≈ 25.5 µM) | – |
| C=C(CC[C@@H](C)[C@H]1CC[C@H]2C3=C(C(=O)C[C@]12C)[C@@]1(C)CC[C@@H](O)[C@](C)(O)[C@@H]1C[C@@H]3O)[C@@H](C)C(=O)O [compound 2, 25R-antcin K] | – | 54 ± 0.4 (≈ 111 µM) |
| C=C(CC[C@@H](C(=O)O)[C@H]1CC[C@@]2(C)C3=CC[C@H]4C(C)(C)[C@@H](O)CC[C@]4(C)C3=CC[C@]12C)C(C)C [compound 7, dehydroeburicoic acid] | 18 ± 0.2 (≈ 38.4 µM) | – |
| C=C(CC[C@@H](C)[C@H]1CC[C@H]2C3=C(C(=O)C[C@]12C)[C@@]1(C)CCC(=O)[C@@H](C)[C@@H]1CC3=O)[C@H](C)C(=O)O [compound 5, 25S-antcin B] | – | 210 ± 7.6 (≈ 448 µM) |
